Patent US12338220B2, “Antiviral pyrazolopiridinone compounds” (Novartis AG, priority 2019, dated 2025)
Read-outs that look alike come from different tables or passages of the source.

Columns and labels:
CMV-polymerase = CMV-polymerase (Human cytomegalovirus (strain AD169) (HHV-5) (Human herpesvirus 5), UniProt P08546); assay: biochemical
CMV = assay: microbe, parasite or virus in culture; type: cell-based
[1] = read-out: CMV-polymerase Biochemical IC50
[2] = Human betaherpesvirus 5, 72 h, read-out: CMV-Luc Cellular EC50, NN-NHDF cells, MOI 1, 72 hrs
[3] = CMV-polymerase Biochemical IC50
[4] = NN-NHDF cells, MOI 1, 72 hrs, read-out: CMV-Luc Cellular EC50

Compound	EC50 (CMV; [2])	also measured
Cn1ccc(NS(=O)(=O)C2(CN3CCc4c(C(=O)NCc5ccc(C#N)cc5)nn(C)c4C3=O)CC2)n1 [Example 156, N-(4-Cyanobenzyl)-1-methyl-6-((1-(N-(1-methyl-1H-pyrazol-3-yl)sulfamoyl)cyclopropyl)methyl)-7-oxo-4,5,6,7-tetrahydro-1H-pyrazolo[3,4-c]pyridine-3-carboxamide]	0.1 µM	IC50 (CMV-polymerase; [1]): 0.003 µM
CC1(S(=O)(=O)C2(CN3CCc4c(C(=O)NCc5ccc(Cl)cc5)nn(CCOCCO)c4C3=O)CC2)CC1 [Example 222, N-(4-Chlorobenzyl)-1-(2-(2-hydroxyethoxy)ethyl)-6-((1-((1-methylcyclopropyl)sulfonyl)cyclopropyl)methyl)-7-oxo-4,5,6,7-tetrahydro-1H-pyrazolo[3,4-c]pyridine-3-carboxamide]	0.033 µM	IC50 (CMV-polymerase; [3]): 0.003 µM
CCC(=O)Cn1nc(C(=O)NCc2ccc(C#N)cc2)c2c1C(=O)N(CC1(S(=O)(=O)C3CC3)CC1)CC2 [Example 227, N-(4-Cyanobenzyl)-6-((1-(cyclopropylsulfonyl)cyclopropyl)methyl)-7-oxo-1-(2-oxobutyl)-4,5,6,7-tetrahydro-1H-pyrazolo[3,4-c]pyridine-3-carboxamide]	0.028 µM	IC50 (CMV-polymerase; [3]): 0.001 µM
Cn1nc(C(=O)NCc2ccc(Cl)cc2)c2c1C(=O)N(CC1(S(=O)(=O)C(C)(C)COCCO)CC1)CC2 [Example 88, N-(4-Chlorobenzyl)-6-((1-((1-(2-hydroxyethoxy)-2-methylpropan-2-yl)sulfonyl)cyclopropyl)methyl)-1-methyl-7-oxo-4,5,6,7-tetrahydro-1H-pyrazolo[3,4-c]pyridine-3-carboxamide]	0.036 µM	IC50 (CMV-polymerase; [3]): 0.002 µM
O=C(NCc1ccc(Cl)cc1)c1n[nH]c2c1CCN(CC1(S(=O)(=O)C3CC3)CC1)C2=O [Example 44, N-(4-Chlorobenzyl)-6-((1-(cyclopropylsulfonyl)cyclopropyl)methyl)-7-oxo-4,5,6,7-tetrahydro-1H-pyrazolo[3,4-c]pyridine-3-carboxamide]	0.076 µM	IC50 (CMV-polymerase; [3]): 0.004 µM
Cn1nc(C(=O)NCc2ccc(C#N)cc2)c2c1C(=O)N(CC1(S(=O)(=O)N3CCC(C)(O)C3)CC1)CC2 (single isomer, unassigned) [Example 130, (R)- or (S)-N-(4-Cyanobenzyl)-6-((1-((3-hydroxy-3-methylpyrrolidin-1-yl)sulfonyl)cyclopropyl)methyl)-1-methyl-7-oxo-4,5,6,7-tetrahydro-1H-pyrazolo[3,4-c]pyridine-3-carboxamide]	0.163 µM	IC50 (CMV-polymerase; [1]): 0.007 µM
Cn1nc(C(=O)NCc2ccc(C#N)cc2)c2c1C(=O)N(CC1(S(=O)(=O)N3CCC(C)(O)C3)CC1)CC2 (single isomer, unassigned) [Example 131, (R)- or (S)-N-(4-Cyanobenzyl)-6-((1-((3-hydroxy-3-methylpyrrolidin-1-yl)sulfonyl)cyclopropyl)methyl)-1-methyl-7-oxo-4,5,6,7-tetrahydro-1H-pyrazolo[3,4-c]pyridine-3-carboxamide]		IC50 (CMV-polymerase; [1]): 0.016 µM
Cn1nc(C(=O)NCc2ccc(C#N)cc2)c2c1C(=O)N(CC1(S(=O)(=O)C(C)(C)C(O)CN)CC1)CC2 (single isomer, unassigned) [Example 199, (R)- or (S)-6-((1-((4-Amino-3-hydroxy-2-methylbutan-2-yl)sulfonyl)cyclopropyl)methyl)-N-(4-cyanobenzyl)-1-methyl-7-oxo-4,5,6,7-tetrahydro-1H-pyrazolo[3,4-c]pyridine-3-carboxamide]	0.019 µM	EC50 (CMV; Human betaherpesvirus 5, read-out: Cellular activity against CMV (EC50), Table 18): 0.018 µM
CN(C(C)(CO)CO)S(=O)(=O)C1(CN2CCc3c(C(=O)NCc4ccc(Cl)cc4)nn(C)c3C2=O)CC1 [Example 154, N-(4-chlorobenzyl)-6-((1-(N-(1,3-dihydroxy-2-methylpropan-2-yl)-N-methylsulfamoyl)cyclopropyl)methyl)-1-methyl-7-oxo-4,5,6,7-tetrahydro-1H-pyrazolo[3,4-c]pyridine-3-carboxamide]	0.083 µM	
Cn1nc(C(=O)OCc2ccc(C#N)cc2)c2c1C(=O)N(CC1(S(=O)(=O)C3CC3)CC1)CC2 [Example 24, 4-cyanobenzyl 6-((1-(cyclopropylsulfonyl)cyclopropyl)methyl)-1-methyl-7-oxo-4,5,6,7-tetrahydro-1H-pyrazolo[3,4-c]pyridine-3-carboxylate]	0.197 µM	
CNCC(O)C(C)(C)S(=O)(=O)C1(CN2CCc3c(C(=O)NCc4ccc(Cl)cc4)nn(C)c3C2=O)CC1 (single isomer, unassigned) [Example 204, (R)- or (S)-N-(4-Chlorobenzyl)-6-((1-((3-hydroxy-2-methyl-4-(methylamino)butan-2-yl)sulfonyl)cyclopropyl)methyl)-1-methyl-7-oxo-4,5,6,7-tetrahydro-1 H-pyrazolo[3,4-c]pyridine-3-carboxamide]	0.011 µM	
N#Cc1ccc(CNC(=O)c2n[nH]c3c2CCN(CC2(S(=O)(=O)C4CC4)CC2)C3=O)cc1 [Example 45, N-(4-Cyanobenzyl)-6-((1-(cyclopropylsulfonyl)cyclopropyl)methyl)-7-oxo-4,5,6,7-tetrahydro-1H-pyrazolo[3,4-c]pyridine-3-carboxamide]		EC50 (CMV; [4]): 0.146 µM
CC(N)COCC(C)(C)S(=O)(=O)C1(CN2CCc3c(C(=O)NCc4ccc(Cl)cc4)nn(C)c3C2=O)CC1 (single isomer, unassigned) [Example 97, (R)- or (S)-6-((1-((1-(2-Aminopropoxy)-2-methylpropan-2-yl)sulfonyl)cyclopropyl)methyl)-N-(4-chlorobenzyl)-1-methyl-7-oxo-4,5,6,7-tetrahydro-1H-pyrazolo[3,4-c]pyridine-3-carboxamide]	0.008 µM	
Cn1nc(C(=O)NCc2ccc(Cl)cc2)c2c1C(=O)N(CC1(S(=O)(=O)C(C)(CN)CO)CC1)CC2 (centres unmarked) [Example 186, 6-((1-((1-Amino-3-hydroxy-2-methylpropan-2-yl)sulfonyl)cyclopropyl)methyl)-N-(4-chlorobenzyl)-1-methyl-7-oxo-4,5,6,7-tetrahydro-1H-pyrazolo[3,4-c]pyridine-3-carboxamide]		EC50 (CMV; Human betaherpesvirus 5, 72 h, NN-NHDF cells, MOI 1, 72 hrs, read-out: CMV-Luc Cellular EC50): 0.09 µM
CC1Cc2c(C(=O)NCc3ccc(C#N)cc3)nn(C)c2C(=O)N1CC1(S(C)(=O)=O)CC1 (single isomer, unassigned) [Example 41, (R)- or (S)-N-(4-cyanobenzyl)-1,5-dimethyl-6-((1-(methylsulfonyl)cyclopropyl)methyl)-7-oxo-4,5,6,7-tetrahydro-1H-pyrazolo[3,4-c]pyridine-3-carboxamide]		IC50 (CMV-polymerase; [1]): 9.77 µM
Cn1nc(C(=O)NCc2ccc(C#N)cc2)c2c1C(=O)N(CC1(S(=O)(=O)C(C)(CN)CO)CC1)CC2 (single isomer, unassigned) [Example 184, (R)- or (S)-6-((1-((1-Amino-3-hydroxy-2-methylpropan-2-yl)sulfonyl)cyclopropyl)methyl)-N-(4-cyanobenzyl)-1-methyl-7-oxo-4,5,6,7-tetrahydro-1H-pyrazolo[3,4-c]pyridine-3-carboxamide]	0.165 µM	
CC(N)COCC(C)(C)S(=O)(=O)C1(CN2CCc3c(C(=O)NCc4ccc(C#N)cc4)nn(C)c3C2=O)CC1 (single isomer, unassigned) [Example 99, (R)- or (S)-6-((1-((1-(2-Aminopropoxy)-2-methylpropan-2-yl)sulfonyl)cyclopropyl)methyl)-N-(4-cyanobenzyl)-1-methyl-7-oxo-4,5,6,7-tetrahydro-1H-pyrazolo[3,4-c]pyridine-3-carboxamide]	0.014 µM	
Cn1nc(C(=O)NCc2ccc(C#N)cc2)c2c1C(=O)N(CC1(S(=O)(=O)C(C)(C)COCCO)CC1)CC2 [Example 87, N-(4-Cyanobenzyl)-6-((1-((1-(2-hydroxyethoxy)-2-methylpropan-2-yl)sulfonyl)cyclopropyl)methyl)-1-methyl-7-oxo-4,5,6,7-tetrahydro-1H-pyrazolo[3,4-c]pyridine-3-carboxamide]		EC50 (CMV; [4]): 0.044 µM
CNCC(O)C(C)(C)S(=O)(=O)C1(CN2CCc3c(C(=O)NCc4ccc(C#N)cc4)nn(C)c3C2=O)CC1 (single isomer, unassigned) [Example 202, (R)- or (S)-N-(4-Cyanobenzyl)-6-((1-((3-hydroxy-2-methyl-4-(methylamino)butan-2-yl)sulfonyl)cyclopropyl)methyl)-1-methyl-7-oxo-4,5,6,7-tetrahydro-1 H-pyrazolo[3,4-c]pyridine-3-carboxamide]	0.03 µM	
CN(C)CC(O)C(C)(C)S(=O)(=O)C1(CN2CCc3c(C(=O)NCc4ccc(Cl)cc4)nn(C)c3C2=O)CC1 (single isomer, unassigned) [Example 206, (R)- or (S)-N-(4-Chlorobenzyl)-6-((1-((4-(dimethylamino)-3-hydroxy-2-methylbutan-2-yl)sulfonyl)cyclopropyl)methyl)-1-methyl-7-oxo-4,5,6,7-tetrahydro-1H-pyrazolo[3,4-c]pyridine-3-carboxamide]	0.071 µM	
CC(N)COCC(C)(C)S(=O)(=O)C1(CN2CCc3c(C(=O)NCc4ccc(Cl)cc4)nn(C)c3C2=O)CC1 (single isomer, unassigned) [Example 98, (R)- or (S)-6-((1-((1-(2-Aminopropoxy)-2-methylpropan-2-yl)sulfonyl)cyclopropyl)methyl)-N-(4-chlorobenzyl)-1-methyl-7-oxo-4,5,6,7-tetrahydro-1H-pyrazolo[3,4-c]pyridine-3-carboxamide]		EC50 (CMV; read-out: CMV-Luc Cellular EC50, NN-NHDF cells, MOI 1, 72 hrs): 0.008 µM
Cn1nc(C(=O)NCc2ccc(C#N)cc2)c2c1C(=O)N(CC1(S(=O)(=O)C3CCOC3)CC1)CC2 (single isomer, unassigned) [Example 170, (R)- or (S)-N-(4-Cyanobenzyl)-1-methyl-7-oxo-6-((1-((tetrahydrofuran-3-yl)sulfonyl)cyclopropyl)methyl)-4,5,6,7-tetrahydro-1H-pyrazolo[3,4-c]pyridine-3-carboxamide]	0.124 µM	
